IC50 data for 25 compounds are collected here from patent US8912216B2, “Hetaryl-[1,8]naphthyridine derivatives” (Merck Patent GmbH, priority 2010, dated 2014).

One assay addresses T1, GST-ALK5 (Homo sapiens, UniProt P36897).
T1 sequence (P36897 34-503): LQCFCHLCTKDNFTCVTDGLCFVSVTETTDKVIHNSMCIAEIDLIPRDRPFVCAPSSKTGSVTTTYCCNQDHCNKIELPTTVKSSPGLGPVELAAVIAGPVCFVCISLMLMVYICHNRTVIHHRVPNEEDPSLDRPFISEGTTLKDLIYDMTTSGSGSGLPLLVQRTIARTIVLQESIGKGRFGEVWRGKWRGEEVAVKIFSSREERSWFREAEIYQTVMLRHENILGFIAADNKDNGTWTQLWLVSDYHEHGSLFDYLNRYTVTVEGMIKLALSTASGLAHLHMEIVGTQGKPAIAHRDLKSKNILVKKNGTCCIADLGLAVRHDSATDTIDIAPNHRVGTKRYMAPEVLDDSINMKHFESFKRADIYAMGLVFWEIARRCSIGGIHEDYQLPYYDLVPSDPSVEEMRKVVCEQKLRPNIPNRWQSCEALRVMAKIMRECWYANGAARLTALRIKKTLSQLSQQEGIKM
Kind of assay: In-vitro (enzyme) kinase assay, 384-well flashplate (Example 36). Format: biochemical. To be noted: GST-ALK5, GST-SMAD2 substrate, 3 mM ATP, 30° C., 45 min; read-out: TβR activity (Example 36). A digest of the protocol:
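Radiometric flashplate assay: 31.2 nM GST-ALK5 phosphorylating 439 nM GST-SMAD2 with 3 mM ATP plus ³³P-ATP, in HEPES/MgCl2/MnCl2/DTT/BSA buffer pH 7.4, 45 min at 30 °C, 5-10 compound concentrations. EDTA stop, filtration and washing, then radioactivity counted; IC50 derived from the curve.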

Assay [1] relates to TGF-beta-induced phosphorylation of Smad2 and Smad3 in Mv1-Lu cells. Nature of the assay: Inhibition of Smad2/3 phosphorylation in Mv1Lu cells (Example 35A). Type of assay: cell-based, mink Mustela vison. To be noted: Neogale vison, Mv1-Lu cells, TGF-beta 1 5 ng/ml, phospho-Smad2/3 ELISA, read-out: TβR activity (Example 35A). A digest of the protocol: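 Serum-starved (16-20 h) Mv1-Lu mink lung epithelial cells were pre-incubated 1.5 h with compound dilutions (0.2% DMSO), then stimulated 1 h with 5 ng/ml TGF-beta 1. Phospho-Smad2 (Ser465/467)/Smad3 (Ser423/425) in lysates was measured by ELISA. IC50 came from dose-response fits between stimulated and unstimulated controls.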
In general terms: An ELISA detects its analyte on a solid surface through an enzyme-linked reagent.

Molecules are shown by their SMILES. pIC50: −log10 of the molar value. Some results are limits rather than exact numbers.

In the case of `CN1CCN(c2ccc(-c3cncc(-c4cc(-c5cc(F)ccc5F)nc5ncccc45)c3)nn2)CC1` [compound 140, 2-(2,5-Difluoro-phenyl)-4-{5-[6-(4-methyl-piperazin-1-yl)-pyridazin-3-yl]-pyridin-3-yl}-[1,8]naphthyridine], the results for the pIC50 (at GST-ALK5; in assay [1]) were 6.00 to 7.00 and 5.00 to 6.00, respectively.
For `Fc1ccccc1-c1cc(-c2cncc(-c3cnn(CCn4cccn4)c3)c2)c2cccnc2n1` [compound 77, 2-(2-Fluoro-phenyl)-4-{5-[1-(2-pyrazol-1-yl-ethyl)-1H-pyrazol-4-yl]-pyridin-3-yl}-[1,8]naphthyridine] the same measures were 6.00 to 7.00 and 5.00 to 6.00.
As to `CN(C)CCCn1cc(-c2cncc(-c3cc(-c4cc(Cl)ccc4F)nc4ncccc34)c2)cn1` [compound 97, [3-(4-{5-[2-(5-Chloro-2-fluoro-phenyl)-[1,8]naphthyridin-4-yl]-pyridin-3-yl}-pyrazol-1-yl)-propyl]-dimethyl-amine], the pIC50 (on GST-ALK5; in assay [1]) was more than 7.00 each time.
On to `COc1cccc(-c2cncc(-c3cc(-c4cc(Cl)ccc4F)nc4ncccc34)c2)n1` [compound 111, 2-(5-Chloro-2-fluoro-phenyl)-4-(6-methoxy-[2,3′]bipyridinyl-5′-yl)-[1,8]naphthyridine], for which the pIC50 (on GST-ALK5; in assay [1]) was 6.00 to 7.00 throughout.
With `Fc1ccc(Cl)cc1-c1cc(-c2cncc(-c3ccc(OCCN4CCCC4)cc3)c2)c2cccnc2n1` [compound 156, 2-(5-Chloro-2-fluoro-phenyl)-4-{5-[4-(2-pyrrolidin-1-yl-ethoxy)-phenyl]-pyridin-3-yl}-[1,8]naphthyridine], the pIC50 (at GST-ALK5; in assay [1]) was more than 7.00 in each case.
For `CN1CCN(c2ccc(-c3cncc(-c4cc(-c5cc(Cl)ccc5F)nc5ncccc45)c3)cn2)CC1` [compound 93, 2-(5-Chloro-2-fluoro-phenyl)-4-[6′-(4-methyl-piperazin-1-yl)-[3,3′]bipyridinyl-5-yl]-[1,8]naphthyridine], the pIC50 (on GST-ALK5; in assay [1]) was more than 7.00 throughout.
With `CN1CCN(c2ccc(-c3cncc(-c4cc(-c5cc(F)ccc5F)nc5ncccc45)c3)cn2)CC1` [compound 121, 2-(2,5-Difluoro-phenyl)-4-[6′-(4-methyl-piperazin-1-yl)-[3,3′]bipyridinyl-5-yl]-[1,8]naphthyridine], the pIC50 at GST-ALK5 was more than 7.00; in assay [1], 6.00 to 7.00.
The matching figures for `CN1CCN(c2ccnc(-c3cncc(-c4cc(-c5cc(Cl)ccc5F)nc5ncccc45)c3)c2)CC1` [compound 132, 2-(5-Chloro-2-fluoro-phenyl)-4-[4-(4-methyl-piperazin-1-yl)-[2,3′]bipyridinyl-5′-yl]-[1,8]naphthyridine]: more than 7.00 and more than 7.00.
For `Fc1ccc(Cl)cc1-c1cc(-c2cncc(-c3ccc(OCCN4CCOCC4)cc3)c2)c2cccnc2n1` [compound 161, 2-(5-Chloro-2-fluoro-phenyl)-4-{5-[4-(2-morpholin-4-yl-ethoxy)-phenyl]-pyridin-3-yl}-[1,8]naphthyridine] the same measures were more than 7.00 and more than 7.00.
Turning to `Cc1cccc(-c2cc(-c3cncc(-c4cnn(C5CCN(C)CC5)c4)c3)c3cccnc3n2)n1` [compound 49, 4-{5-[1-(1-Methyl-piperidin-4-yl)-1H-pyrazol-4-yl]-pyridin-3-yl}-2-(6-methyl-pyridin-2-yl)-[1,8]naphthyridine], the pIC50 (at GST-ALK5; in assay [1]) was more than 7.00 throughout.
On to `CC(C)N1CCc2ccc(-c3cncc(-c4cc(-c5cc(Cl)ccc5F)nc5ncccc45)c3)cc2C1` [compound 176, 2-(5-Chloro-2-fluoro-phenyl)-4-[5-(2-isopropyl-1,2,3,4-tetrahydro-isoquinolin-7-yl)-pyridin-3-yl]-[1,8]naphthyridine], for which the pIC50 (on GST-ALK5; in assay [1]) was more than 7.00 in each case.
For the compound `Cc1cccc(-c2cc(-c3cncc(-c4ccccc4)c3)c3cccnc3n2)n1` [compound 5, 2-(6-Methyl-pyridin-2-yl)-4-(5-phenyl-pyridin-3-yl)-[1,8]naphthyridine], the pIC50 was 6.00 to 7.00 at GST-ALK5 and 5.00 to 6.00 in assay [1].
For `COCCN1CCC(n2cc(-c3cncc(-c4cc(-c5cc(Cl)ccc5F)nc5ncccc45)c3)cn2)CC1` [compound 44, 2-(5-chloro-2-fluoro-phenyl)-4-(5-{1-[1-(2-methoxy-ethyl)-piperidin-4-yl]-1H-pyrazol-4-yl}-pyridin-3-yl)-[1,8]naphthyridine] the same measures were more than 7.00 and more than 7.00.
For `CN1CCC(n2cc(-c3cncc(-c4cc(-c5cc(C(F)(F)F)ccc5F)nc5ncccc45)c3)cn2)CC1` [compound 23, 2-(2-fluoro-5-trifluoromethyl-phenyl)-4-{5-[1-(1-methyl-piperidin-4-yl)-1H-pyrazol-4-yl]-pyridin-3-yl}-[1,8]naphthyridine], the pIC50 (at GST-ALK5; in assay [1]) was more than 7.00 in each case.
Turning to `Fc1ccc(Cl)cc1-c1cc(-c2cncc(-c3cnn(CCN4CCCC4)c3)c2)c2cccnc2n1` [compound 21, 2-(5-Chloro-2-fluoro-phenyl)-4-{5-[1-(2-pyrrolidin-1-yl-ethyl)-1H-pyrazol-4-yl]-pyridin-3-yl}-[1,8]naphthyridine], the pIC50 (at GST-ALK5; in assay [1]) was more than 7.00 each time.
With `Nc1cccnc1-c1cncc(-c2cc(-c3cc(Cl)ccc3F)nc3ncccc23)c1` [compound 129, 5′-[2-(5-Chloro-2-fluoro-phenyl)-[1,8]naphthyridin-4-yl]-[2,3′]bipyridinyl-3-ylamine], the pIC50 (on GST-ALK5; in assay [1]) was less than 5.00 in each case.
`Cc1cccc(-c2cc(-c3cncc(-c4cnn(C)c4)c3)c3cccnc3n2)n1` [compound 10, 4-[5-(1-Methyl-1H-pyrazol-4-yl)-pyridin-3-yl]-2-(6-methyl-pyridin-2-yl)-[1,8]naphthyridine]: the values for the pIC50 (on GST-ALK5; in assay [1]) were 6.00 to 7.00 and 5.00 to 6.00, respectively.
Turning to `Fc1ccc(Cl)cc1-c1cc(-c2cccnc2-c2ccccc2)c2cccnc2n1` [compound 101, 2-(5-Chloro-2-fluoro-phenyl)-4-(2-phenyl-pyridin-3-yl)-[1,8]naphthyridine], the pIC50 (on GST-ALK5; in assay [1]) was less than 5.00 throughout.
`OCCN1CCC(n2cc(-c3cncc(-c4cc(-c5cc(Cl)ccc5F)nc5ncccc45)c3)cn2)CC1` [compound 45, 2-[4-(4-{5-[2-(5-Chloro-2-fluoro-phenyl)-[1,8]naphthyridin-4-yl]-pyridin-3-yl}-pyrazol-1-yl)-piperidin-1-yl]-ethanol]: the pIC50 (on GST-ALK5; in assay [1]) was more than 7.00 in each case.
For `Fc1ccc(Cl)cc1-c1cc(-c2cncc(-c3ccc(CCN4CCCC4)cc3)c2)c2cccnc2n1` [compound 172, 2-(5-Chloro-2-fluoro-phenyl)-4-{5-[4-(2-pyrrolidin-1-yl-ethyl)-phenyl]-pyridin-3-yl}-[1,8]naphthyridine], the pIC50 (at GST-ALK5; in assay [1]) was more than 7.00 throughout.
In the case of `CN1CCN(c2ccc(-c3cncc(-c4cc(-c5cc(Cl)ccc5F)nc5ncccc45)c3)nn2)CC1` [compound 113, 2-(5-Chloro-2-fluoro-phenyl)-4-{5-[6-(4-methyl-piperazin-1-yl)-pyridazin-3-yl]-pyridin-3-yl}-[1,8]naphthyridine], the pIC50 (at GST-ALK5; in assay [1]) was more than 7.00 in each case.
Regarding `CN1CCN(c2nc(-c3cncc(-c4cc(-c5ccccc5F)nc5ncccc45)c3)no2)CC1` [compound 54, 2-(2-Fluoro-phenyl)-4-{5-[5-(4-methyl-piperazin-1-yl)-[1,2,4]oxadiazol-3-yl]-pyridin-3-yl}-[1,8]naphthyridine], the results for the pIC50 (on GST-ALK5; in assay [1]) were more than 7.00 and 5.00 to 6.00, respectively.
The matching figures for `Cn1ccc2cc(-c3cncc(-c4cc(-c5cc(Cl)ccc5F)nc5ncccc45)c3)ccc21` [compound 150, 2-(5-Chloro-2-fluoro-phenyl)-4-[5-(1-methyl-1H-indol-5-yl)-pyridin-3-yl]-[1,8]naphthyridine]: 6.00 to 7.00 and more than 7.00.
In the case of `Fc1ccc(C(F)(F)F)cc1-c1cc(-c2cncc(-c3cnn(CCN4CCOCC4)c3)c2)c2cccnc2n1` [compound 34, 2-(2-Fluoro-5-trifluoromethyl-phenyl)-4-{5-[1-(2-morpholin-4-yl-ethyl)-1H-pyrazol-4-yl]-pyridin-3-yl}-[1,8]naphthyridine], the pIC50 on GST-ALK5 is more than 7.00; in assay [1], 6.00 to 7.00.
For `Fc1ccc(Cl)cc1-c1cc(-c2cncc(-c3ccc(CCN4CCOCC4)cc3)c2)c2cccnc2n1` [compound 153, 2-(5-Chloro-2-fluoro-phenyl)-4-{5-[4-(2-morpholin-4-yl-ethyl)-phenyl]-pyridin-3-yl}-[1,8]naphthyridine] the same measures were more than 7.00 and more than 7.00.
